# ChEMBL document CHEMBL5137054, “Xyloketal B Reverses Nutritional Hepatic Steatosis, Steatohepatitis, and Liver Fibrosis through Activation of the PPARα/PGC1α Signaling Pathway” (J Nat Prod, 2022)
# Calls of active or inactive are those of the source. The calls are words filed in the database; no cut-off is given here.
# Legend:
# [1] = test system: Mus musculus; test: Reduction in hepatic steatosis in HFD-induced C57BL/6J mouse model of NAFL assessed as reduction in size of lipid droplets in hepatocytes at 20 to 40 mg/kg/day, ip administered from week 7 to week 12 by H&E staining analysis; type: functional, organism-based; conditions: dose 20-40 mg/kg/day, time 6.0 weeks
# [2] = test system: Mus musculus; test: Reduction in hepatic steatosis in HFD-induced C57BL/6J mouse model of NAFL assessed as reduction in serum ALT level at 20 to 40 mg/kg/day, ip administered from week 7 to week 12; type: functional, organism-based; conditions: dose 20-40 mg/kg/day, time 6.0 weeks
# [3] = test system: Mus musculus; test: Reduction in hepatic steatosis in HFD-induced C57BL/6J mouse model of NAFL assessed as reduction in serum AST level at 20 to 40 mg/kg/day, ip administered from week 7 to week 12; type: functional, organism-based; conditions: dose 20-40 mg/kg/day, time 6.0 weeks
# [4] = test system: Mus musculus; test: Reduction in hepatic steatosis in HFD-induced C57BL/6J mouse model of NAFL assessed as reduction in serum cholesterol level at 20 to 40 mg/kg/day, ip administered from week 7 to week 12; type: functional, organism-based; conditions: dose 20-40 mg/kg/day, time 6.0 weeks
# [5] = Toxicity in C57BL/6J mouse assessed as effect on relative liver weight at 40 mg/kg, ip; type: organism-based; conditions: in vivo
# [6] = Toxicity in C57BL/6J mouse assessed as effect on serum ALT level at 40 mg/kg, ip; type: organism-based; conditions: in vivo
# [7] = Toxicity in C57BL/6J mouse assessed as effect on serum glucose level at 40 mg/kg, ip; type: organism-based; conditions: in vivo
# [8] = Toxicity in C57BL/6J mouse assessed as effect on serum triglyceride level at 40 mg/kg, ip; type: organism-based; conditions: in vivo
# [9] = Toxicity in C57BL/6J mouse assessed as effect on serum LDL level at 40 mg/kg, ip; type: organism-based; conditions: in vivo
# [10] = Toxicity in C57BL/6J mouse assessed as effect on serum ApoE level at 40 mg/kg, ip; type: organism-based; conditions: in vivo
# [11] = test system: Mus musculus; test: Upregulation of Medium-chain specific acyl-CoA dehydrogenase gene transcriptional level in HFD-induced C57BL/6J mouse model of NAFL at 20 to 40 mg/kg/day, ip administered from week 7 to week 12 by qRT-PCR analysis; type: functional, organism-based; conditions: dose 20-40 mg/kg/day, time 6.0 weeks
# [12] = test system: Mus musculus; test: Upregulation of Acox2 gene transcriptional level in HFD-induced C57BL/6J mouse model of NAFL at 20 to 40 mg/kg/day, ip administered from week 7 to week 12 by qRT-PCR analysis; type: functional, organism-based; conditions: dose 20-40 mg/kg/day, time 6.0 weeks
# [13] = test system: Mus musculus; test: Upregulation of Cyp4a10 gene transcriptional level in HFD-induced C57BL/6J mouse model of NAFL at 20 to 40 mg/kg/day, ip administered from week 7 to week 12 by qRT-PCR analysis; type: functional, organism-based; conditions: dose 20-40 mg/kg/day, time 6.0 weeks
# [14] = test system: Mus musculus; test: Upregulation of Cyp4a14 gene transcriptional level in HFD-induced C57BL/6J mouse model of NAFL at 20 to 40 mg/kg/day, ip administered from week 7 to week 12 by qRT-PCR analysis; type: functional, organism-based; conditions: dose 20-40 mg/kg/day, time 6.0 weeks
# [15] = test system: Mus musculus; test: Upregulation of Cpt1b gene transcriptional level in HFD-induced C57BL/6J mouse model of NAFL at 20 to 40 mg/kg/day, ip administered from week 7 to week 12 by qRT-PCR analysis; type: functional, organism-based; conditions: dose 20-40 mg/kg/day, time 6.0 weeks
# [16] = test system: Mus musculus; test: Upregulation of Cpt1c gene transcriptional level in HFD-induced C57BL/6J mouse model of NAFL at 20 to 40 mg/kg/day, ip administered from week 7 to week 12 by qRT-PCR analysis; type: functional, organism-based; conditions: dose 20-40 mg/kg/day, time 6.0 weeks
# [17] = test system: Mus musculus; test: Upregulation of carnitine O-palmitoyltransferase-1B enzyme expression in liver of HFD-induced C57BL/6J mouse model of NAFL administered intraperitoneally from week 7 to week 12 by immunoblotting analysis; type: functional; conditions: dose 20-40 mg/kg/day, route ip, time 6.0 weeks, DDE = dose-dependent effect
# [18] = test system: Mus musculus; test: Upregulation of peroxisomal bifunctional enzyme expression in liver of HFD-induced C57BL/6J mouse model of NAFL administered intraperitoneally from week 7 to week 12 by immunoblotting analysis; type: functional; conditions: dose 20-40 mg/kg/day, route ip, time 6.0 weeks, DDE = dose-dependent effect
# [19] = test system: Mus musculus; test: Upregulation of peroxisomal acyl-coenzyme A oxidase-1 enzyme expression in liver of HFD-induced C57BL/6J mouse model of NAFL administered intraperitoneally from week 7 to week 12 by immunoblotting analysis; type: functional; conditions: dose 20-40 mg/kg/day, route ip, time 6.0 weeks, DDE = dose-dependent effect
# [20] = test system: Mus musculus; test: Upregulation of peroxisomal acyl-coenzyme A oxidase-2 enzyme expression in liver of HFD-induced C57BL/6J mouse model of NAFL administered intraperitoneally from week 7 to week 12 by immunoblotting analysis; type: functional; conditions: dose 20-40 mg/kg/day, route ip, time 6.0 weeks, DDE = dose-dependent effect
# [21] = test system: Mus musculus; test: Upregulation of cytochrome P450-4A10 enzyme expression in liver of HFD-induced C57BL/6J mouse model of NAFL administered intraperitoneally from week 7 to week 12 by immunoblotting analysis; type: functional; conditions: dose 20-40 mg/kg/day, route ip, time 6.0 weeks, DDE = dose-dependent effect
# [22] = test system: Mus musculus; test: Upregulation of carnitine O-palmitoyltransferase-1B enzyme expression in liver of HFD-induced C57BL/6J mouse model of NAFL at 15 mg/kg/day, ip administered from week 7 to week 12 by immunoblotting analysis; type: functional, organism-based; conditions: time 6.0 weeks
# [23] = test system: Mus musculus; test: Upregulation of peroxisomal acyl-coenzyme A oxidase-1 enzyme expression in liver of HFD-induced C57BL/6J mouse model of NAFL at 15 mg/kg/day, ip administered from week 7 to week 12 by immunoblotting analysis; type: functional, organism-based; conditions: time 6.0 weeks
# [24] = test system: Mus musculus; test: Anti-inflammatory activity against MCD-induced C57BL/6J mouse model of nonalcoholic steatohepatitis assessed as reduction in necroinflammation foci in liver at 20 to 40 mg/kg/day, ip administered from week 3 to week 4 by H&E staining based light microscopic analysis; type: functional, organism-based; conditions: dose 20-40 mg/kg/day, time 2.0 weeks
# [25] = test system: Mus musculus; test: Anti-inflammatory activity against MCD-induced C57BL/6J mouse model of nonalcoholic steatohepatitis assessed as downregulation of IL1beta expression in liver at 20 to 40 mg/kg/day, ip administered from week 3 to week 4 by immunoblotting analysis; type: functional, organism-based; conditions: dose 20-40 mg/kg/day, time 2.0 weeks
# [26] = test system: Mus musculus; test: Anti-inflammatory activity against MCD-induced C57BL/6J mouse model of nonalcoholic steatohepatitis assessed as downregulation of interleukin 6 expression in liver at 20 to 40 mg/kg/day, ip administered from week 3 to week 4 by immunoblotting analysis analysis; type: functional, organism-based; conditions: dose 20-40 mg/kg/day, time 2.0 weeks
# [27] = test system: Mus musculus; test: Anti-inflammatory activity against MCD-induced C57BL/6J mouse model of nonalcoholic steatohepatitis assessed as downregulation of COX-2 expression in liver at 20 to 40 mg/kg/day, ip administered from week 3 to week 4 by immunoblotting analysis; type: functional, organism-based; conditions: dose 20-40 mg/kg/day, time 2.0 weeks
# [28] = test system: Mus musculus; test: Anti-inflammatory activity against MCD-induced C57BL/6J mouse model of nonalcoholic steatohepatitis assessed as downregulation of TNFalpha expression in liver at 20 to 40 mg/kg/day, ip administered from week 3 to week 4 by immunoblotting analysis; type: functional, organism-based; conditions: dose 20-40 mg/kg/day, time 2.0 weeks
# [29] = test system: Mus musculus; test: Antifibrotic activity against MCD-induced C57BL/6J mouse model of liver fibrosis assessed as reduction in MMP3 level in liver administered intraperitoneally from week 3 to week 6 by immunoblotting analysis; type: functional, organism-based; conditions: dose 20-40 mg/kg, route ip, time 4.0 weeks, DDE = dose-dependent effect
# [30] = test system: Mus musculus; test: Antifibrotic activity against MCD-induced C57BL/6J mouse model of liver fibrosis assessed as reduction in TIMP1 level in liver administered intraperitoneally from week 3 to week 6 by immunoblotting analysis; type: functional, organism-based; conditions: dose 20-40 mg/kg, route ip, time 4.0 weeks, DDE = dose-dependent effect
# [31] = test system: Mus musculus; test: Antifibrotic activity against MCD-induced C57BL/6J mouse model of liver fibrosis assessed as reduction in TGFbeta level in liver administered intraperitoneally from week 3 to week 6 by immunoblotting analysis; type: functional, organism-based; conditions: dose 20-40 mg/kg, route ip, time 4.0 weeks, DDE = dose-dependent effect
smiles,measurement,setting,value
C[C@H]1CO[C@]2(C)Oc3cc(O)c4c(c3C[C@H]12)O[C@@]1(C)OC[C@H](C)[C@H]1C4,Activity,[1],Active
same,Activity,[2],Active
same,Activity,[3],Active
same,Activity,[4],Active
same,Activity,[5],Non-Toxic
same,Activity,[6],Non-Toxic
same,Activity,[7],Non-Toxic
same,Activity,[8],Non-Toxic
same,Activity,[9],Non-Toxic
same,Activity,[10],Non-Toxic
same,Activity,[11],Active
same,Activity,[12],Active
same,Activity,[13],Active
same,Activity,[14],Active
same,Activity,[15],Active
same,Activity,[16],Active
same,Activity,[17],Dde
same,Activity,[18],Dde
same,Activity,[19],Dde
same,Activity,[20],Dde
same,Activity,[21],Dde
same,Activity,[22],Active
same,Activity,[23],Active
same,Activity,[24],Active
same,Activity,[25],Active
same,Activity,[26],Active
same,Activity,[27],Active
same,Activity,[28],Active
same,Activity,[29],Dde
same,Activity,[30],Dde
same,Activity,[31],Dde
